Assay results as given in article PMC12152147, “DDB1 engagement defines the selectivity of S656 analogs for cyclin K degradation over CDK inhibition” (EMBO Reports, 2025).
≈ marks a conversion by molar mass, not a printed value. Where “and” joins values, the source holds several entries; their conditions need not be identical. Identical values can stand only once.

What was measured:
[1] = system: cyclin K, CDK12, RNA polymerase II phospho-ser2, MYC, MCL-1 protein levels; experiment: Immunoblot analysis of protein levels; type: cell-based, H. sapiens; settings: for RNA polymerase II phospho-ser2 level (immunoblot): OCI-AML5, 5 μM for 5 h
Protocol: Total proteins were extracted using RIPA buffer (20 mM Tris-HCl pH 7.4, 150 mM NaCl, 5 mM MgCl2, 5 mM EGTA, 60 mM β-glycerophosphate, 0.1% NP40, 0.1% Triton X-114, 1 mM DTT) supplemented with protease inhibitors (cOmplete, EDTA-free protease inhibitor tablets), and quantified by the bicinchoninic acid (BCA) method using a BSA standard curve. Proteins were resolved by SDS-PAGE, transferred onto PVDF membrane, blocked with 5% milk and probed with primary (overnight, 4 °C) and secondary (1 h, room temperature) antibodies.

OCI-AML5 cells = experiment: Cell death by Annexin V/PI staining; type: cell-based, H. sapiens; settings: 24 h
[2] = Kinetic solubility measurement (HPLC-UV); type: physicochemical; settings: aqueous buffer, kinetic from dmso stock, αMEM media, nominal 200 μM, room temperature, triplicate
Protocol: A 40 μL aliquot of a 10 mM DMSO stock solution of S656 was prepared and diluted in αMEM media to achieve a nominal concentration of 200 μM. The samples were incubated with stirring at 1100 rpm for 24 h at room temperature. From the incubation mixture, 20 μL was pipetted, rinsed in acetonitrile (MeCN) for 5 s, then in water for 5 s. Subsequently, 10 μL was discarded, and the remaining 10 μL was transferred to a mixture containing 10 μL of PBS, 980 μL of quenched solution, and 10 μL of DMSO. Analysis was performed using HPLC equipped with a UV-visible detector (HPLC-UV). Chromatography was conducted under reverse-phase conditions with a column temperature of 55 °C on a Waters XSelect HSS T3 column (2.5 μm, 2.1 ×50 mm). The aqueous solvent (solvent A) was ultrapure water with 0.1% formic acid, and the organic eluent (solvent B) was acetonitrile. The injection volume was 4 μL, and the flow rate was set at 0.6 mL/min.

[3] = system: OCI-AML5 and U937 cell lines; experiment: Synergistic interaction assay with THZ531 (Bliss score); type: cell-based
Source text: 3. It may be worthwhile to investigate whether the CDK12/13 inhibitor THZ531 could synergize with S656 or analogues like UOM-005636 that specifically degrade Cyclin K, in combination cytotoxicity assays, assessing selective suppression of AML viability over normal cells. Both […]
inhibiting CDK12, and S656 / UOM-005636 by degrading Cyclin K. Similar synergistic effects were observed by Katharina et al., where THZ531 promoted prostate ca ncer cell sensitivity to androgen deprivation therapy [Frei, K et. al. Inhibition of the Cyclin K-CDK12 complex induces DNA damage and increases the effect of androgen deprivation therapy in prostate cancer. Int J […]
Indeed, THZ531 is a covalent CDK12/13 inhibitor that specifically binds to the kinase pocket of […]
pocket of CDK12, and that pre-incubation with THZ531 competes with S656-mediated Cyclin K degradation (see Figure 5E).
We performed a synergistic interaction assay between THZ531 and S656 or UOM-005636 in OCI-AML5 and U937 cell lines (see below). […]
interactions between THZ531 and our cyclin K degrader molecules. This is likely due to both drugs competing for the same binding site, rather than acting through complementary pathways. […]

CDK12-DDB1 interaction = target: T1, CDK12-DDB1 interaction (Homo sapiens, UniProt Q16531+Q9NYV4); experiment: NanoLuc Binary Technology CDK12-DDB1 interaction in HEK293 cells; type: cell-based, H. sapiens; settings: HEK293, monitored over 1 h
T1 construct: The kinase domain of CDK12 was fused to the Large BiT (LgBiT); expressed in transfected cells; host or cells: HEK293
T1 sequence (Q9NYV4 727-1020 limits assumed): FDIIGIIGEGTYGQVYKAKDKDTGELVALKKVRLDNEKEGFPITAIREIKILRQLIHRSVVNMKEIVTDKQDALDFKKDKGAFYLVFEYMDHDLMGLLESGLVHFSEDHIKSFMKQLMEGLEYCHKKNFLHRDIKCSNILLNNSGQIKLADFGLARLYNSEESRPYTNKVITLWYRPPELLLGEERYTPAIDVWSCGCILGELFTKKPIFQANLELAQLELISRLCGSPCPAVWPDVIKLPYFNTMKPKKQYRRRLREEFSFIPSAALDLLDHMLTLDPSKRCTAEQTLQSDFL
T1 sequence (Q16531 whole entry, the tested form may be a part): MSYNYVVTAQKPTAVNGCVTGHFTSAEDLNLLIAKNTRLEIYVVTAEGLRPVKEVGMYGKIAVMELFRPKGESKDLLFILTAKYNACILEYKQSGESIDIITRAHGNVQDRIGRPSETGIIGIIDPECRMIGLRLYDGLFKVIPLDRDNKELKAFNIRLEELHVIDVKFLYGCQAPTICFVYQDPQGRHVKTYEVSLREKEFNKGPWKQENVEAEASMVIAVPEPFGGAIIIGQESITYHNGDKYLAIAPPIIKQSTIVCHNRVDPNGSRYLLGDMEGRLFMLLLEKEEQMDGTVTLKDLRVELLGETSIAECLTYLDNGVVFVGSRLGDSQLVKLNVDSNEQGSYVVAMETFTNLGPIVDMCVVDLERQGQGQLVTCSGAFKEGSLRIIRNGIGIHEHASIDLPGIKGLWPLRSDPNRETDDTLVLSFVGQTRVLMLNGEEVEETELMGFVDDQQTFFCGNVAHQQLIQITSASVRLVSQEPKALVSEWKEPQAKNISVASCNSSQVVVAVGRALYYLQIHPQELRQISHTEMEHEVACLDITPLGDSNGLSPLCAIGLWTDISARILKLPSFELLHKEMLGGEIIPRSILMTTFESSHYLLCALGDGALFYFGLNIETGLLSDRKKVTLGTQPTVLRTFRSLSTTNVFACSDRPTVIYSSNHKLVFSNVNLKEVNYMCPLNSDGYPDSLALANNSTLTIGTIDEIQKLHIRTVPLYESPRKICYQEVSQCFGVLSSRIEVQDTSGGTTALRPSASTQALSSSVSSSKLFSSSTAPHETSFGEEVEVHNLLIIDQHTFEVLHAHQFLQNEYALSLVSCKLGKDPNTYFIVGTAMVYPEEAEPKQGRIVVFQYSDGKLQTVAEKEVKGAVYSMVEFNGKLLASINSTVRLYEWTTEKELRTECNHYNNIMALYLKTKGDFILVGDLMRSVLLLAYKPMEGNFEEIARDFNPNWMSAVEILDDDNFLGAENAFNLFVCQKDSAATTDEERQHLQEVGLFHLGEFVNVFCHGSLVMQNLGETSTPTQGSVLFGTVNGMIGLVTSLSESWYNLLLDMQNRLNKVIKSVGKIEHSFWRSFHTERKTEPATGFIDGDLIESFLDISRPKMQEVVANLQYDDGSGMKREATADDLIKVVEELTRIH
T1 sequence (O75909 whole entry partner, the tested form may be a part): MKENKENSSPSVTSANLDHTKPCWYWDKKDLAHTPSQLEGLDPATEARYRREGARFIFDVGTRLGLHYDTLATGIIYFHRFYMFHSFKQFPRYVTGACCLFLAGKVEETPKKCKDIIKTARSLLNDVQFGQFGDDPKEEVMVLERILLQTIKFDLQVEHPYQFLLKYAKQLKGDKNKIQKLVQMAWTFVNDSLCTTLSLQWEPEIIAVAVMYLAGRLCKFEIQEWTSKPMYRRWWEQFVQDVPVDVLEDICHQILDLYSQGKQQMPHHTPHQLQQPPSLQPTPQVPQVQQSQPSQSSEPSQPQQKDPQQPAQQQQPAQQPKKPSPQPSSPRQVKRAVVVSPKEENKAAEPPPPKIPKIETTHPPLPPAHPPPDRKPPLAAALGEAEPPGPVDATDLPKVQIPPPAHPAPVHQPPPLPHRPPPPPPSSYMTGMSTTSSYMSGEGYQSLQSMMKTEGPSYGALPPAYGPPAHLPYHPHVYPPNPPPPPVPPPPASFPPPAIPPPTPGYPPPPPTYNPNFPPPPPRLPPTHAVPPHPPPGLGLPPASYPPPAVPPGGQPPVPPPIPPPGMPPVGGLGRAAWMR
Source text: Using the NanoBiT PPI MCS starter system vectors, we generated fusion proteins of CDK12 and DDB1 to monitor their interaction in living cells through a structural complementation reporter system for the NanoLuc. The kinase domain of CDK12 was fused to the Large BiT (LgBiT) while DDB1 was fused to the Small Bit (SmBiT), both in N-terminal. The primers used to clone CDK12 and DDB1 in NanoBit vectors by Gibson assembly are as follows: N-LgBiT-CDK12KD-F: […]; N-LgBiT-CDK12KD-STOP-R: […]; N-SmBiT-DDB1-F: […]; N-SmBiT-DDB1-GA-R: […].
Both CDK12-LgBiT and DDB1-SmBiT generated plasmids were then transfected in HEK293 cells using JetPrime transfection reagent according to the manufacturer’s instructions and plated 24 h later in white 384-well plate (20,000 cells /well). After 4 h, 5× D-blue substrate was added to each well, incubated for 5 min at obscurity, prior to addition of compounds of interest at increasing concentrations. Luminescence was monitored for 1 h using the Neo Synergy BioTek plate reader.

[4] = OCI-AML5, increasing concentrations, 6 h

| SMILES | RNA polymerase II phospho-ser2 level (immunoblot) [1] | cyclin K protein level (immunoblot) [1, 4] | cyclin K protein level (immunoblot) ([1]; 3 primary AML specimens, 5 μM, 5 hours) | Mcl-1 protein and c-MYC level (immunoblot) ([1]; OCI-AML5, 5 μM for 4 h) | Early Apoptosis (FITC+/PI-) (OCI-AML5 cells; S656 1uM) | Live(FITC-/PI-) (OCI-AML5 cells; S656 1uM) | Necrosis (FITC-/PI+) (OCI-AML5 cells; S656 1uM) | Late Apoptosis (FITC+/PI+) (OCI-AML5 cells; S656 3uM) | Live(FITC-/PI-) (OCI-AML5 cells; S656 3uM) | Necrosis (FITC-/PI+) (OCI-AML5 cells; S656 3uM) | Late Apoptosis (FITC+/PI+) (OCI-AML5 cells; S656 5uM) | Live(FITC-/PI-) (OCI-AML5 cells; S656 5uM) | Necrosis (FITC-/PI+) (OCI-AML5 cells; S656 5uM) | solubility kinetic at 24 h [2] | synergistic interaction with THZ531 (Bliss score) [3] | CDK12-DDB1 interaction in live cells (NanoLuc luminescence) (CDK12-DDB1 interaction) |
| --- | --- | --- | --- | --- | --- | --- | --- | --- | --- | --- | --- | --- | --- | --- | --- | --- |
| Cc1cccc(Nc2nc(CC(=O)Nc3ncc(C)s3)cs2)n1 [HQ461] | reduced levels of RNA polymerase II phospho-ser2 | dose-dependent cyclin K depletion |  |  |  |  |  |  |  |  |  |  |  |  |  |  |
| CN(C)c1ccc(CC(=O)Nc2ncc(SCc3cccnc3)s2)cc1 [S656] | reduced levels of RNA polymerase II phospho-ser2 | dose-dependent cyclin K depletion | strong depletion of cyclin K | substantial depletion | 5.3% and 6.01% and 3.13% | 87.8% and 65.8% and 86.8% | 0.1% and 0.36% and 0.49% | 39.5% and 53.2% and 33.4% | 44.5% and 40.2% and 57.7% | 0.2% and 1.08% and 1.83% | 56.1% and 61.6% and 54.4% | 24.3% and 31% and 39% | 0.6% and 3.31% and 1.13% | 23 µM (≈ 8.84 µg/mL) | moderate to very low synergistic | efficiently induced an interaction between CDK12 and DDB1 |
| CN(C)C/C=C/C(=O)Nc1ccc(C(=O)N2CCC[C@@H](Nc3ncc(Cl)c(-c4c[nH]c5ccccc45)n3)C2)cc1 [THZ531] |  |  |  |  |  |  |  |  |  |  |  |  |  |  |  | not detectable |
